Assay results published in patent US20240109918A1, “HETEROCYCLIC COMPOUNDS AND USES THEREOF” (Kumquat Biosciences Inc., priority 2022, published 2024).

Experiments:
KRASG12D = molecular target: T1, KRASG12D (Homo sapiens, UniProt P01116, G12D); test: Bio-Biochem-PPI-HTRF Ras-SOS1 interaction assay (KRAS G12D); format: biochemical; conditions: 5 nM
T1 construct: made in house; host or cells: E. coli BL21 (DE3)
Procedure, shortened: (§1)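 HTRF readout (ex 337 nm; em 620 and 665 nm) after ≥~10 min incubation; IC50 fitted from 665/620 ratio. GST-K-Ras wt or G12D plus anti-GST-Eu(K), His-hSOS1 plus anti-6His-XL665; duplicate dilutions, 10 μM top.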

KRASwt = molecular target: T2, KRASwt (Homo sapiens, UniProt P01116); test: Bio-Biochem-PPI-HTRF Ras-SOS1 interaction assay (KRAS wt); format: biochemical; conditions: 5 nM
T2 construct: made in house; host or cells: E. coli BL21 (DE3)
T2 sequence (P01116 1-188 isoform P01116-2): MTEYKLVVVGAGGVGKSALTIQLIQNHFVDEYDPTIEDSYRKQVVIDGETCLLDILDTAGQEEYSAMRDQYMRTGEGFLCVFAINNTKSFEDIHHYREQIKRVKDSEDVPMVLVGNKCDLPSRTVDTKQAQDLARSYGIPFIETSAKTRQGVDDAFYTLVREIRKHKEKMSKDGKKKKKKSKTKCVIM
Procedure, shortened: as §1

T1 sequence (P01116 1-188 isoform P01116-2 G12D): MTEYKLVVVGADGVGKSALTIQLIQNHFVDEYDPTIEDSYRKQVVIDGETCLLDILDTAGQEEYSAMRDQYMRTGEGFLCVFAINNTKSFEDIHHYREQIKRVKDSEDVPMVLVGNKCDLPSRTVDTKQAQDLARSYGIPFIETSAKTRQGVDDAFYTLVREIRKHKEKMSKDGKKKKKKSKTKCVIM

| Structure (SMILES) | IC50 (KRASG12D) | IC50 (KRASwt) |
| --- | --- | --- |
| CN(C)C/C=C/C(=O)N1CC2(CCCCN(c3nc(OC[C@@]45CCCN4C[C@H](F)C5)nc4c(F)c(-c5ccc(F)c6sc(N)c(C#N)c56)c(Cl)cc34)C2)C1 [compound 188, 2-amino-4-(6-chloro-4-(2-((E)-4-(dimethylamino)but-2-enoyl)-2,6-diazaspiro[3.6]decan-6-yl)-8-fluoro-2-(((2R,7aS)-2-fluorotetrahydro-1H-pyrrolizin-7a(5H)-yl)methoxy)quinazolin-7-yl)-7-fluorobenzo[b]thiophene-3-carbonitrile] | < 5 µM | < 5 µM |
| N#Cc1c(N)sc2c(F)ccc(-c3c(Cl)cc4c(N5CCOC6(CN(C(=O)C(F)Cl)C6)C5)nc(OC[C@@]56CCCN5C[C@H](F)C6)nc4c3F)c12 (stereo partly drawn) [compound 200, 2-amino-4-(6-chloro-4-(2-(2-chloro-2-fluoroacetyl)-5-oxa-2,8-diazaspiro[3.5]nonan-8-yl)-8-fluoro-2-(((2R,7aS)-2-fluorotetrahydro-1H-pyrrolizin-7a(5H)-yl)methoxy)quinazolin-7-yl)-7-fluorobenzo[b]thiophene-3-carbonitrile] | < 5 µM | < 5 µM |
| C#Cc1c(F)ccc2cc(O)cc(-c3ncc4c(N5CCCCC6(CN(C(=O)[C@@H]7CC7(F)F)C6)C5)nc(OC[C@@]56CCCN5C[C@H](F)C6)nc4c3F)c12 [compound 334, ((S)-2,2-difluorocyclopropyl) (6-(7-(8-ethynyl-7-fluoro-3-hydroxynaphthalen-1-yl)-8-fluoro-2-(((2R,7aS)-2-fluorotetrahydro-1H-pyrrolizin-7a(5H)-yl)methoxy)pyrido[4,3-d]pyrimidin-4-yl)-2,6-diazaspiro[3.6]decan-2-yl)methanone] | < 5 µM | < 5 µM |
| Nc1nc2c(-c3c(Cl)cc4c(N5CCOC6(CCNC6)C5)nc(OCC56CCCN5C[C@H](F)C6)nc4c3F)ccc(F)c2s1 (stereo partly drawn) [compound 150, 4-(6-chloro-8-fluoro-2-(((2R)-2-fluorotetrahydro-1H-pyrrolizin-7a(5H)-yl)methoxy)-4-(6-oxa-2,9-diazaspiro[4.5]decan-9-yl)quinazolin-7-yl)-7-fluorobenzo[d]thiazol-2-amine] | < 5 µM | < 5 µM |
| N#Cc1c(N)sc2c(F)ccc(-c3c(Cl)cc4c(N5CCCCC6(CN(C(=O)[C@@H]7CCCN7)C6)C5)nc(OC[C@@]56CCCN5C[C@H](F)C6)nc4c3F)c12 [compound 296, 4-(4-(2-(L-prolyl)-2,6-diazaspiro[3.6]decan-6-yl)-6-chloro-8-fluoro-2-(((2R,7aS)-2-fluorotetrahydro-1H-pyrrolizin-7a(5H)-yl)methoxy)quinazolin-7-yl)-2-amino-7-fluorobenzo[b]thiophene-3-carbonitrile] | < 5 µM | < 5 µM |
| CN(C)C/C=C/C(=O)N1CC2(CCN(c3nc(OC[C@@]45CCCN4C[C@H](F)C5)nc4c(F)c(-c5ccc(F)c6sc(N)c(C#N)c56)c(Cl)cc34)C2)C1 [compound 183, 2-amino-4-(6-chloro-4-(2-((E)-4-(dimethylamino)but-2-enoyl)-2,6-diazaspiro[3.4]octan-6-yl)-8-fluoro-2-(((2R,7aS)-2-fluorotetrahydro-1H-pyrrolizin-7a(5H)-yl)methoxy)quinazolin-7-yl)-7-fluorobenzo[b]thiophene-3-carbonitrile] | < 5 µM | < 5 µM |
| N#Cc1c(N)sc2c(F)ccc(-c3c(Cl)cc4c(N5CCCCC6(CN(C(=O)[C@H]7[C@@H]8COC[C@@H]87)C6)C5)nc(OCC56CCCN5C[C@H](F)C6)nc4c3F)c12 (stereo partly drawn) [compound 192, 4-(4-(2-((1R,5S,6r)-3-oxabicyclo[3.1.0]hexane-6-carbonyl)-2,6-diazaspiro[3.6]decan-6-yl)-6-chloro-8-fluoro-2-(((2R,7aS)-2-fluorotetrahydro-1H-pyrrolizin-7a(5H)-yl)methoxy)quinazolin-7-yl)-2-amino-7-fluorobenzo [b]thiophene-3-carbonitrile] | < 5 µM | < 5 µM |
| N#CN1CC2(C1)CN(c1nc(OC[C@@]34CCCN3C[C@H](F)C4)nc3c(F)c(-c4ccc(F)c5sc(N)nc45)c(Cl)cc13)CCO2 [compound 187, 8-(7-(2-amino-7-fluorobenzo[d]thiazol-4-yl)-6-chloro-8-fluoro-2-(((2R,7aS)-2-fluorotetrahydro-1H-pyrrolizin-7a(5H)-yl)methoxy)quinazolin-4-yl)-5-oxa-2,8-diazaspiro[3.5]nonane-2-carbonitrile] | < 5 µM | < 5 µM |
| CN1CCC[C@H]1COc1nc(N2CCOC3(CNC3)C2)c2cc(Cl)c(-c3ccc(F)c4sc(N)c(C#N)c34)c(F)c2n1 (single isomer, unassigned) [compound 114] | < 5 µM | < 5 µM |
| Cn1cc(C(=O)N2CC3(CCCCN(c4nc(OC[C@@]56CCCN5C[C@H](F)C6)nc5c(F)c(-c6ccc(F)c7sc(N)c(C#N)c67)c(Cl)cc45)C3)C2)c(C(F)F)n1 [compound 220, 2-amino-4-(6-chloro-4-(2-(3-(difluoromethyl)-1-methyl-1H-pyrazole-4-carbonyl)-2,6-diazaspiro[3.6]decan-6-yl)-8-fluoro-2-(((2R,7aS)-2-fluorotetrahydro-1H-pyrrolizin-7a(5H)-yl)methoxy)quinazolin-7-yl)-7-fluorobenzo[b]thiophene-3-carbonitrile] | < 5 µM | < 5 µM |
| N#Cc1c(N)sc2c(F)ccc(-c3c(Cl)cc4c(N5CCC(F)(F)CC6(CN(C(=O)[C@@H]7C[C@H]7C#N)C6)C5)nc(OC[C@@]56CCCN5C[C@H](F)C6)nc4c3F)c12 [compound 342, 2-amino-4-(6-chloro-4-(2-((1R,2R)-2-cyanocyclopropane-1-carbonyl)-9,9-difluoro-2,6-diazaspiro[3.6]decan-6-yl)-8-fluoro-2-(((2R,7aS)-2-fluorotetrahydro-1H-pyrrolizin-7a(5H)-yl)methoxy)quinazolin-7-yl)-7-fluorobenzo[b]thiophene-3-carbonitrile] | < 5 µM | < 5 µM |
| CC1(NC(=O)N2CC3(CCCCN(c4nc(OC[C@@]56CCCN5C[C@H](F)C6)nc5c(F)c(-c6ccc(F)c7sc(N)c(C#N)c67)c(Cl)cc45)C3)C2)COC1 [compound 328, 6-(7-(2-amino-3-cyano-7-fluorobenzo[b]thiophen-4-yl)-6-chloro-8-fluoro-2-(((2R,7aS)-2-fluorotetrahydro-1H-pyrrolizin-7a(5H)-yl)methoxy)quinazolin-4-yl)-N-(3-methyloxetan-3-yl)-2,6-diazaspiro[3.6]decane-2-carboxamide] | < 5 µM | < 5 µM |
| COC1CN(C(=O)N2CC3(CCCCN(c4nc(OC[C@@]56CCCN5C[C@H](F)C6)nc5c(F)c(-c6ccc(F)c7sc(N)c(C#N)c67)c(Cl)cc45)C3)C2)C1 [compound 306, 2-amino-4-(6-chloro-8-fluoro-2-(((2R,7aS)-2-fluorotetrahydro-1H-pyrrolizin-7a(5H)-yl)methoxy)-4-(2-(3-methoxyazetidine-1-carbonyl)-2,6-diazaspiro[3.6]decan-6-yl)quinazolin-7-yl)-7-fluorobenzo[b]thiophene-3-carbonitrile] | < 5 µM | < 5 µM |
| N#Cc1c(N)sc2c(F)ccc(-c3c(Cl)cc4c(N5CCCCC6(CN(C(=O)C7CC7C(F)(F)F)C6)C5)nc(OC[C@@]56CCCN5C[C@H](F)C6)nc4c3F)c12 (stereo partly drawn) [compound 311, 2-amino-4-(6-chloro-8-fluoro-2-(((2R,7aS)-2-fluorotetrahydro-1H-pyrrolizin-7a(5H)-yl)methoxy)-4-(2-(2-(trifluoromethyl)cyclopropane-1-carbonyl)-2,6-diazaspiro[3.6]decan-6-yl)quinazolin-7-yl)-7-fluorobenzo[b]thiophene-3-carbonitrile] | < 5 µM | < 5 µM |
| N#Cc1c(N)sc2c(F)ccc(-c3c(Cl)cc4c(N5CCCCC6(CN(C(=O)[C@H]7CCOC7)C6)C5)nc(OC[C@@]56CCCN5C[C@H](F)C6)nc4c3F)c12 [compound 319, 2-amino-4-(6-chloro-8-fluoro-2-(((2R,7aS)-2-fluorotetrahydro-1H-pyrrolizin-7a(5H)-yl)methoxy)-4-(2-((S)-tetrahydrofuran-3-carbonyl)-2,6-diazaspiro[3.6]decan-6-yl)quinazolin-7-yl)-7-fluorobenzo[b]thiophene-3-carbonitrile] | < 5 µM | < 5 µM |
| N#Cc1c(N)sc2c(F)ccc(-c3c(Cl)cc4c(N5CCCCC6(CN(C(=O)C7CC7(F)Cl)C6)C5)nc(OC[C@@]56CCCN5C[C@H](F)C6)nc4c3F)c12 (stereo partly drawn) [compound 336, 2-amino-4-(6-chloro-4-(2-(2-chloro-2-fluorocyclopropane-1-carbonyl)-2,6-diazaspiro[3.6]decan-6-yl)-8-fluoro-2-(((2R,7aS)-2-fluorotetrahydro-1H-pyrrolizin-7a(5H)-yl)methoxy)quinazolin-7-yl)-7-fluorobenzo[b]thiophene-3-carbonitrile] | < 5 µM | < 5 µM |
| N#Cc1c(N)sc2c(F)ccc(-c3c(Cl)cc4c(N5CCCCC6(CN(C(=O)C7C8COCC87)C6)C5)nc(OC[C@@]56CCCN5C[C@H](F)C6)nc4c3F)c12 (stereo partly drawn) [compound 238, 4-(4-(2-(3-oxabicyclo[3.1.0]hexane-6-carbonyl)-2,6-diazaspiro [3.6]decan-6-yl)-6-chloro-8-fluoro-2-(((2R,7aS)-2-fluorotetrahydro-1H-pyrrolizin-7a(5H)-yl)methoxy)quinazolin-7-yl)-2-amino-7-fluorobenzo[b]thiophene-3-carbonitrile] | < 5 µM | < 5 µM |
| N#Cc1c(N)sc2c(F)ccc(-c3c(Cl)cc4c(N5CCCCC6(CN(C(=O)N7CC(F)(F)C7)C6)C5)nc(OC[C@@]56CCCN5C[C@H](F)C6)nc4c3F)c12 [compound 298, 2-amino-4-(6-chloro-4-(2-(3,3-difluoroazetidine-1-carbonyl)-2,6-diazaspiro[3.6]decan-6-yl)-8-fluoro-2-(((2R,7aS)-2-fluorotetrahydro-1H-pyrrolizin-7a(5H)-yl)methoxy)quinazolin-7-yl)-7-fluorobenzo[b]thiophene-3-carbonitrile] | < 5 µM | < 5 µM |
